This is an account of results in patent US20180312493A1, “Antibiotic Compounds, Pharmaceutical Formulations Thereof And Methods And Uses Therefor” (Simon Fraser University, priority 2015, published 2018).

Molecules are shown by their SMILES. Converted amounts (≈) assume the structure as drawn.

The target of the first experiment is T1, MRSA Pyk (Staphylococcus aureus, UniProt Q6GG09).
T1 construct: made in house; host or cells: E. coli BL-21 (DE3)
T1 sequence (Q6GG09 whole entry): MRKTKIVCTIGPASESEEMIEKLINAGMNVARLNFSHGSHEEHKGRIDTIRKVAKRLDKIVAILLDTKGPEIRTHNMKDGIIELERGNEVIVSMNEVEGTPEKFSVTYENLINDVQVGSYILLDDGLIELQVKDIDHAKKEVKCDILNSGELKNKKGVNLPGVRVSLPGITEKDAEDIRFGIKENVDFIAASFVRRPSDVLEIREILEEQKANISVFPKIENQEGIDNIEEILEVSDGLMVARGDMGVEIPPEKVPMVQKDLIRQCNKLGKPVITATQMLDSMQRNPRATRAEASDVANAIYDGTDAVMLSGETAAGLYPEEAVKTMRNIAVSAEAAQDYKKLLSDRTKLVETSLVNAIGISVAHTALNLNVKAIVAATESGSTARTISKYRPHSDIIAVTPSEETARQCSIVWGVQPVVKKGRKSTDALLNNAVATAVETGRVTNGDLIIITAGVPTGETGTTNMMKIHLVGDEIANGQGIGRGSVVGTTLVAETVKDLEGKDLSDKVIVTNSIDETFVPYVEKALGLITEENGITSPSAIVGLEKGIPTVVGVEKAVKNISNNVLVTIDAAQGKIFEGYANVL
The experiment in a line: MRSA pyruvate kinase (PK) activity, continuous LDH-coupled assay. The format is biochemical, methicillin resistant S. aureus (MRSA252).
Details: not given
From the text: Genomic DNA of MRSA strain Sanger 252 extracted using DNeasy Tissue Kit™ (Qiagen™) was used as a template to generate the His-tagged MRSA PK. Human cDNA from MCF-7 breast cancer cell line (courtesy of Dr. J Wong, BC Cancer Research Center (Vancouver, Canada)) was used as a template to generate the full-length human M2 PK enzyme. The following primer sets were used creating appropriate restriction sites (NdeI and XhoI sites underlined): For cloning of MRSA PK: M27F 5′-[…]-3′ and M27R 5′-[…]-3′, for cloning of human M2 PK isoform: hM2F 5′-[…]-3′ and hM2R 5′-[…]-3′. The resulting PCR fragments for each construct were cloned into the NdeI and XhoI unique sites of the bacterial expression vector pET-28a (+) (Novagen™). […] The sequence and the correct reading frame of all constructs were verified by sequencing. Human M1, R and L PK constructs in pET-28-a(+) vectors (courtesy of Dr. L. Cantley, Harvard Medical, School (Boston, USA)) were used to generate relevant recombinant His-tagged human PK isoforms.
MRSA and human constructs in pET-28a(+) were used to express relevant recombinant PK proteins in E. coli BL-21 (DE3). The proteins were expressed and purified using Ni-NTA agarose (Qiagen™) according to the manufacturer's protocol. Briefly, cells were grown to an absorbance of 0.4-0.5 at 600 nm in 2×YT medium, then induced with 0.1 mM IPTG for 3 h at 20° C. Cells were lysed by sonication on ice (3×10-s bursts with a 30-s recovery between bursts) in lysis buffer (0.2 mg/ml lysozyme, 50 mM Tris pH 7.5, 10 mM MgCl2, 200 mM NaCl, 100 mM KCl, 10% glycerol, 10 mM imidazole, 0.5% NP-40 and 1 mM DTT containing Complete™ protease inhibitor). Cell lysates were cleared by centrifugation (18,000×g in a Beckman™ JA-20 rotor) for 20 min at 4° C. and PK isoforms were purified by batch binding to Ni-NTA resin. The resins were then packed in columns (1×2 cm) and washed with 400 column volumes lysis buffer containing 30 mM imidazole. His-tagged PK isoforms were eluted with the same buffer containing 300 mM imidazole. The proteins were dialyzed overnight at 4° C. against 2000 volumes of ice-cold 30 mM Tris pH 7.5, 25 mM KCl, 5 mM MgCl2, 10% glycerol and 1 mM DTT to remove imidazole. All purification steps were done at 4° C.; enzymes were flash-frozen and stored at −70° C. Enzymatic activity of frozen protein preparations was stable for at least 10 months and up to 5 freeze/thaw cycles. Purity and physical integrity of proteins were assessed using SDS-polyacrylamide gel electrophoresis (SDS-PAGE) followed by coomassie blue staining. Protein concentration was estimated by Bradford assay (Bio-Rad Protein Assay™) using bovine serum albumin as a standard.
Candidate MRSA PK inhibitors were assayed for their ability to inhibit enzymatic activities of MRSA and human PKs. PK activity was determined using a continuous assay coupled to lactate dehydrogenase (LDH) in which the change in absorbance at 340 nm owing to oxidation of NADH was measured using a Benchmark Plus™ microplate spectrophotometer (Bio-Rad Laboratories, Hercules, Calif.). […] Reactions were initiated by the addition of 15 nM of one of the PK enzymes. PK activity proportional to the rate of change at 340 nm was expressed as specific activity (μmol/min/mg), which is defined as the amount of PK that catalyzes the formation of one micromole of either product per minute. Inhibitors were dissolved in DMSO with the final concentration of the solvent never exceeding 1% of the assay volume. IC50 values were calculated by curve fitting on a four-parameter dose-response model with variable slope using Graphpad Prism 5.0™ (GraphPad™ Software Inc., La Jolla, Calif.). In all studies, less than 10% of total PEP was exhausted during the reaction. Reactions were performed at 30° C. for up to 5 min. All values determined represent at least two measurements, in triplicate (Tables 1-6) or duplicate unless mentioned otherwise. […]
A word on the IC50: it is the midpoint of a concentration-inhibition curve. `O=C(NCCN1CCOCC1)c1c(/C=C/c2ccc(Cl)cc2)[nH]c2cc(Br)ccc12` [Compound 29, (E)-6-Bromo-2-(4-chlorostyryl)-N-(2-morpholinoethyl)-1H-indole-3-carboxamide] registered an IC50 of more than 1 µM. The same measure, in the same setting: the figure for `O=C(NCc1cccnc1)c1c(/C=C/c2ccc(Cl)nc2)[nH]c2cc(Br)ccc12` [Compound 37, (E)-6-Bromo-2-(2-(6-chloropyridin-3-yl)vinyl)-N-(pyridin-3-ylmethyl)-1 H-indole-3-carboxamide] is 0.1 to 1 µM. Still for that read-out and setting: the figure for `COc1ccc(CCc2[nH]c3cc(Br)ccc3c2CCO)nc1` [Compound 71, 2-(6-Bromo-2-(2-(5-methoxypyridin-2-yl)ethyl)-1H-indol-3-yl)ethanol] is more than 1 µM; for `CN(C)CCNC(=O)c1c(NCc2ccc(Cl)cc2)[nH]c2cc(Br)ccc12` [Compound 83, 6-bromo-2-(4-chlorobenzylamino)-N-(2-(dimethylamino)ethyl)-1H-indole-3-carboxamide] it is more than 1 µM. Same read-out and setting: the figure for `CC(=O)OCC(=O)Nc1c(CCc2ccc(Cl)cc2)[nH]c2cc(Br)ccc12` [Compound 97, 2-(6-Bromo-2-(4-chlorophenethyl)-1H-indol-3-ylamino)-2-oxoethyl Acetate] is more than 1 µM.

The next experiment has as its system S. aureus (ATCC29213). Put plainly: In vitro susceptibility, broth microdilution (MIC). To be noted: Staphylococcus aureus; S. aureus ATCC29213; 18-24 h, 37 C; read-out: Antimicrobial activity (MIC) S. aureus ATCC29213. It is filed as cell-based. The source says: Epidemic methicillin resistant S. aureus (MRSA) strain sequenced at the Sanger Centre (MRSA252, NRS71) was obtained from NARSA (Network on Antimicrobial Resistance in S. aureus). Methicillin sensitive S. aureus (ATCC 29213 and 25923), methicillin resistant S. aureus (ATCC BAA-1762), and Salmonella typhimurium (ATCC BAA-185) were obtained from ATCC, The Global Bioresource Center. Acinetobacter baumannii (ATCC 19606 and ATCC 17978), Klebsiella pneumonia (C238), vancomycin resistant Enterococci #2 (2010A) (VRE#2), MRSA (USA400, MW2) and Pseudomonas aeruginosa (PA0-1) were obtained from the laboratory of Dr B. B. Finlay at the University of British Columbia (Vancouver, Canada).
The antimicrobial activities of PK inhibitor candidates were determined using the 96-well microtiter standard 2-fold serial broth microdilution method as described by CLSI (formerly NCCLS) with the various gram-positive and gram-negative bacteria species mentioned above. Bacteria from a single colony were grown, overnight in either BHI Broth (VRE), mueller hinton broth (S. aureus 29213; MRSA USA400, A. baumannii 19606, MRSA BAA-1762) or L-broth (P. aeruginosa, S. typhimurium, K. pneumonia and A. baumannii 17978). […] Culture plates were incubated for 18-24 h at 37° C., and optical density at 600 nm (OD600) was measured using a Benchmark Plus™ microplate spectrophotometer (Bio-Rad™). The absorbance control values for the series containing CAMHB and inhibitor were subtracted as background from the corresponding infected wells. Minimal inhibitory concentration (MIC) was defined as the lowest concentration of test compound leading to complete inhibition of cell growth in relation to compound-free control wells as determined by optical density. Vancomycin, methicillin and ciprofloxicin were used as reference compounds. All assays were run in triplicate or duplicate. Experiments were replicated at least twice to verify reproducibility using the above conditions.
The term MIC denotes the least concentration at which growth counts as inhibited. With `OC(c1c(CCc2cc(Cl)cc(Cl)c2)[nH]c2cc(Br)ccc12)(C(F)(F)F)C(F)(F)F` [Compound 15, 2-(6-Bromo-2-(3,5-dichlorophenethyl)-1H-indol-3-yl)-1,1,1,3,3,3-hexafluoropropan-2-ol], the MIC came to 1 µg/mL (≈ 1.87 µM). The same measure, in the same setting: then `CNC(=O)c1c(/C=C/c2ccc(Cl)cc2)[nH]c2cc(Br)ccc12` [Compound 20, (E)-6-Bromo-2-(4-chlorostyryl)-N-methyl-1H-indole-3-carboxamide], with 64 µg/mL (≈ 164 µM); and `O=C(NCCN1CCN(C(=O)COCC(=O)N2CCN(CCNC(=O)c3c(/C=C/c4ccc(Cl)cc4)[nH]c4cc(Br)ccc34)CC2)CC1)c1c(/C=C/c2ccc(Cl)cc2)[nH]c2cc(Br)ccc12` [Compound 56, (E)-N,N′-((4,4′-(2,2′-oxybis(acetyl))bis(piperazine-4,1-diyl))bis(ethane-2,1-diyl))bis(6-bromo-2-((E)-4-chlorostyryl)-1H-indole-3-carboxamide)], with more than 64 µg/mL.

Consider `NC(=O)N1CCN(CCNC(=O)c2c(-c3cc4cc(Cl)ccc4[nH]3)[nH]c3cc(Br)ccc23)CC1` [Compound 132, 6-bromo-N-(2-(4-carbamoylpiperazin-1-yl)ethyl)-5′-chloro-1H,1′H-2,2′-biindole-3-carboxamide], for which the MIC is more than 64 µg/mL. In the case of `CS(=O)(=O)NC(=O)CNC(=O)c1c(-c2cc3cc(Cl)ccc3[nH]2)[nH]c2cc(Br)ccc12` [Compound 151, 6-bromo-5′-chloro-N-(2-(methylsulfonamido)-2-oxoethyl)-1H,1′H-[2,2′-biindole]-3-carboxamide], the MIC is more than 64 µg/mL. As to `O=C(Nc1ccc(Cl)cc1)Nc1nc2ccccc2s1` [Compound 162, 1-(benzo[d]thiazol-2-yl)-3-(4-chlorophenyl)urea], the MIC is more than 64 µg/mL. Still for that read-out and setting: the figure for `O=C(Nc1ccccn1)Nc1nc2cc(Br)ccc2s1` [Compound 163, 1-(5-bromobenzo[d]thiazol-2-yl)-3-(pyridin-2-yl)urea] is more than 64 µg/mL; for `O=C(Nc1ccc(Cl)cc1)Nc1nc2ccccc2o1` [Compound 164, 1-(benzo[d]oxazol-2-yl)-3-(4-chlorophenyl)urea] it is more than 64 µg/mL. The same measure, in the same setting: then `COc1ccc2sc(NC(=O)Nc3ccc(Cl)cc3)nc2c1` [Compound 165, 1-(4-chlorophenyl)-3-(5-methoxybenzo[d]thiazol-2-yl)urea], with more than 64 µg/mL; and `O=C(Nc1ccc(Cl)cc1)Nc1nc2cc([N+](=O)[O-])ccc2s1` [Compound 167, 1-(4-chlorophenyl)-3-(5-nitrobenzo[d]thiazol-2-yl)urea], with more than 64 µg/mL; and `CCOC(=O)c1ccc2sc(NC(=O)Nc3ccc(Cl)cc3)nc2c1` [Compound 171, ethyl 2-(3-(4-chlorophenyl)ureido)benzo[d]thiazole-5-carboxylate], with more than 64 µg/mL. Still for that read-out and setting: the figure for `O=C(Nc1ccc(Cl)cc1)Nc1nc2cc(Cl)ccc2o1` [Compound 177, 1-(5-chlorobenzo[d]oxazol-2-yl)-3-(4-chlorophenyl)urea] is more than 64 µg/mL; for `O=C(Nc1nc2cc(Cl)ccc2o1)NC1CCCCC1` [Compound 178, 1-(5-chlorobenzo[d]oxazol-2-yl)-3-cyclohexylurea] it is more than 64 µg/mL; for `O=C(Nc1ccc(Cl)cc1)Nc1nc2cc(F)ccc2o1` [Compound 179, 1-(4-chlorophenyl)-3-(5-fluorobenzo[d]oxazol-2-yl)urea] it is more than 64 µg/mL. `O=C(Nc1nc2cc(F)ccc2o1)NC1CCCCC1` [Compound 180, 1-cyclohexyl-3-(5-fluorobenzo[d]oxazol-2-yl)urea]: the MIC is more than 64 µg/mL. On the same count and under the same terms, the figure for `O=C(O)C1CNCCN1C(=O)c1c(-c2cc3cc(Cl)ccc3[nH]2)[nH]c2cc(Br)ccc12` (centres unmarked) [Compound 225, 1-(6-bromo-5′-chloro-1H,1′H-[2,2′-biindole]-3-carbonyl)piperazine-2-carboxylic Acid] is more than 64 µg/mL; for `COC(=O)[C@@H]1CN(CCNC(=O)c2c(-c3cc4cc(Cl)ccc4[nH]3)[nH]c3cc(Br)ccc23)CCN1C(=O)OCc1ccccc1` [Compound 226, 1-benzyl 2-methyl (S)-4-(2-(6-bromo-5′-chloro-1H,1′H-[2,2′-biindole]-3-carboxamido)ethyl)piperazine-1,2-dicarboxylate] it is more than 64 µg/mL; for `COC(=O)[C@@H]1CN(CCNC(=O)c2c(-c3cc4cc(Cl)ccc4[nH]3)[nH]c3cc(Br)ccc23)CCN1` [Compound 227, Methyl (S)-4-(2-(6-bromo-5′-chloro-1H,1′H-[2,2′-biindole]-3-carboxamido)ethyl)piperazine-2-carboxylate] it is more than 64 µg/mL.
